Test results published in patent EP0873137B1, “COMPOSITIONS INCLUDING CALCIUM INFLUX BLOCKERS FOR INHIBITING CELL GROWTH” (The Wellesley Hospital Foundation, priority 1996, dated 1997).

Experiments:
32D-kit cells = assay: Cell death assay (Trypan blue exclusion) in 32D-kit cells; assay type: cell-based
Method: Figures 2A and 2B show induction of cell death in 32D-kit or p815 cells with SLF plus Ca^2+ influx blockers. 32D-kit (Figure 2A) or p815 (Figure 2B) cells were incubated with either SLF (solid bars) or IL-3 (striped bars) plus the indicated concentration of Ca^2+ influx blocker. Cell death was determined by Trypan Blue exclusion after 18 hours in culture.
32D-kit cells were incubated for 18 hours with SLF and 5µM econazole and oleic acid (solid bars), or with SLF and 5µM econazole and elaidic acid (hatched bars), or IL-3 and 5 µM econazole and oleic acid (stippled bars). The proportion of dead cells was determined by Trypan Blue exclusion.
(§1) Figures 6A and 6B show the effect of ionomycin on apoptosis induced by SLF and Ca^2+ influx blacker. In Figure 6A, 32D-kit cells were incubated for 18 hours with 5µM econazole and the indicated amounts of ionomycin in the presence of either SLF (circles) or IL-3 (squares). In Figure 6B, 32D-kit-Bcl-2 cells were incubated for 18 hours with 5µM econazole and the indicated amounts of ionomycin in the presence of either SLF (circles) or IL-3 (squares). The proportion of dead cells was determined by Trypan Blue exclusion.
(§2) In additional cultures, IL-3 alone or no factor was added and cell viability was similarly tested. The effect on cell viability of adding 25 or 250 µM YVAD-CHO was also evaluated in separate cultures in which no additional factors were added.
32D-kit cells were incubated with either SLF in the absence of YVAD-CHO (circles), or with SLF in the presence of 25 µM YVAD-CHO. (triangles), or IL-3 (squares) with the indicated amounts of econazole. The proportion of dead cells was evaluated by Trypan Blue exclusion after 18 hours in culture
(§3) Cells. Bone marrow derived mast cells (BMMC) were generated as described previously (Berger et al., 1994). They were cultured in OPTI-MEM (Gibco, Burlington, ON) supplemented with 10% heat-inactivated FBS and 2% WEHI-3 supernatant as a source of IL-3. 32D-kit cells (gift from Dr. Mark Minden, Ontario Cancer Institute) are an IL-3-dependent myelomonocytic cell line expressing c-kit (Hu et al., 1995). 32D-kit cells were grown in RPMI (Gibco) supplemented with 10% heat-inactivated FBS, 2% WEHI-3 supematant, and 1 mg/ml G418 (Gibco). The p815 cell line is a murine mastocytoma cell line. P815 cells were grown in RPMI supplemented with 10% heat-inactivated FBS. Bcl-2 gp+e NIH 3T3 packaging cells were grown in Dulbecco's modified Eagle's medium (DMEM - Gibco) and supplemented with 10% FBS and 2 µg/ml puromycin (Sigma, St. Louis, Mo). All cell cultures also contained 55µM β-mercaptoethanol and antibiotics (both Sigma). SK-BR3, MDA-MB231 and MCF-7 cells were obtained from ATCC. SK-BR3 and MDA-MB231 cells were cultured in RPMI medium supplemented with 10% heat inactivated fetal bovine serum. MCF-7 cells were cultured in DMEM medium supplemented with 10% heat inactivated fetal bovine serum and 10 µg/ml human insulin (Sigma).
(§4) Cell death assays. 2.5 X 10^4 BMMCs, 32D-kit or P815 cells were placed in 96-well flat bottom plates in a volume of 0.1 ml RPMI containing 0.5% FBS. Cells were supplemented with either SLF, Substance P or IL3 plus Ca^2+ channel blocker. In the case of adding IgE, cells were incubated with 10 µg/ml SPE-7 for 45 minutes at 4°C followed by 3 washes with RPMI, 0.5% FBS before plating in 96 well plates and adding 100 ng/ml DNP-HSA. The proportion of dead cells was determined after 18 or 24 hours in culture by counting cells that could or could not exclude Trypan blue.

MDA-MB-231 cells = assay: Cell death in autocrine stimulated MDA-MB-231 breast cancer cells; assay type: cell-based, human; settings: 20µM econazole; YVAD-CHO 10 or 100 µM, ionomycin 0.1 nM to 1 µM, oleic acid 10 or 100 µM
Method: Bar 1: control; Bar 2: 20µM econazole; Bar 3: 20µM econazole and 10µM YVAD-CHO (ICE inhibitor); Bar 4: 20µM econazole and 100 µM YVAD-CHO; Bar 5: 20µM econazole and 0.1 nM ionomycin (calcium ionophore); Bar 6: 20µM econazole and 10 nM ionomycin; Bar 7: 20µM econazole and 1 µM ionomycin; Bar 8: 20µM econazole and 10 µM oleic acid (PLC activation inhibitor); and Bar 9: 20µM econazole and 100 µM oleic acid.
as §3
The MDA-MB-231 cell line is a highly anaplastic carcinoma of the breast. it too is tumorigenic in nude mice but expresses only low levels of erbB2. However it is FGF^R positive and is stimulated in an autocrine fashion by bFGF (el Yazidi et al., 1995). Experiments were carried out to determine the susceptibility of MDA-MB-231 cells to a Ca^2+ influx blocker and the influence of oleic acid, ionomycin, and YVAD-CHO on induction of cell death by the blocker. The results are summarized together in Figure 9B.

[1] = system: Bone marrow derived mast cells (BMMC); assay: Cell death assay (Trypan blue exclusion) in BMMC; assay type: cell-based; settings: 24 hours
Method: Cytotoxicity assays were performed as described in Materials and Methods. In Figures 1A to 1C, BMMCs were incubated with either SLF (500ng/ml in all cases) (circles) or IL-3 (25% WEHI-3 conditioned medium in all cases) (squares) with the indicated amounts of ketotifen (Figure 1A), econazole (Figure 1B) or Ni^2+ (Figure 1C). In Figure 1D, BMMCs were incubated with IL-3, and the indicated amounts of SLF. Plotted circles also included 2.5mM Ni^2+ and plotted squares included no Ni^2+. In Figure 1E, BMMCs were coated with IgE anti-DNP monoclonal SPE-7, then incubated with IL-3 plus the indicated amounts of DNP-HSA (Ag), with 5µM econazole (circles) or without econazole (squares). In Figure 1F, BMMCs were incubated with IL-3 plus the indicated amounts of Substance P, with 5µM econazole (circles) or without econazole (squares). In all cases, the proportion of dead cells was determined after 24 hours in culture by counting cells that could or could not exclude Trypan blue. Error bars represent the standard error determined from triplicate measurements.
as §3, §4

32D-kit-Bcl-2 cells = assay: Cell death assay (Trypan blue exclusion) in Bcl-2 over-expressing 32D-kit cells; assay type: cell-based; settings: 5µM econazole, 18 hours, Figure 6B
Method: as §1, §2
Generation of Bcl-2 over-expressing 32D-kit cells. gp + e bcl-2 retroviral producer cells were a gift from Dr. Y. Ben-David (Toronto) and contain an LXSN-based retroviral vector expressing genes for both puromycin resistance and murine bcl-2. For infection, a confluent layer of gp + e packaging cells were co-cultured with 32D-kit cells for 24 hours. Non-adherent 32D-kit cells were then removed, cultured for 48 hours and then selected for bcl-2 over-expressing cells in the presence of 2µg/ml puromycin.
as §4

[2] = SLF and 5µM econazole, 18 hours

## YVAD-CHO
32D-kit cells; 25 µM YVAD-CHO, 18 hours, Figure 8
  resistance to apoptosis induced by SLF plus econazole: provides resistance
32D-kit cells; 25 or 250 µM YVAD-CHO, Figure 7B
  protection from apoptosis induced by factor withdrawal: fails to protect
32D-kit cells; not shown
  protection from apoptosis induced by the topoisomerase inhibitor etoposide: protects
MDA-MB-231 cells
  protection from death induced by the Ca^2+ influx blocker: can protect

## CCCCCCCC/C=C/CCCCCCCC(=O)O [elaidic acid, trans-9-octadecenoic acid]
32D-kit cells; [2]
  rescue/protection from cell death induced by SLF and Ca^2+ influx blocker: not

## [Ni+2] [Ni^2+]
[1]; co-incubated with SLF (500ng/ml), Figures 1A-C
  cell death: converted to a death signal
[1]; stimulated with IgE plus antigen (DNP-HSA), with IL-3, 5µM econazole in Figure 1E
  cell death: combine with IgE receptor cross-linking to induce cell death

## C[C@H](CCC(=O)O)C[C@H](C)C[C@H](C)C(=O)/C=C(\O)[C@H](C)C[C@H](C)C/C=C/[C@@H](C)[C@@H](O)[C@@H](C)[C@@H](O)C[C@@H]1CC[C@@](C)([C@H]2CC[C@@](C)([C@@H](C)O)O2)O1 [ionomycin]
32D-kit cells; [2]
  cell death at higher concentrations of ionomycin: restoration of cell death
  rescue/protection from cell death induced by SLF and Ca^2+ influx blocker: protects
32D-kit cells; SLF and 5µM econazole, 18 hours, Figure 6A
  concentration of maximal protection: 10 nM
32D-kit-Bcl-2 cells
  cell death at higher levels of ionomycin: did not demonstrate significant cell death
32D-kit-Bcl-2 cells; low levels of ionomycin
  protection from apoptosis by SLF plus blocker: similarly protected from apoptosis
MDA-MB-231 cells
  protection from death induced by the Ca^2+ influx blocker: can protect

## COc1ccc(CCN(C)CCCC(C#N)(c2ccc(OC)c(OC)c2)C(C)C)cc1OC (centres unmarked) [verapamil]
32D-kit cells; combined with SLF, not shown, cell type not stated
  inducing cell death: ineffective in inducing cell death

## CCCCCCCC/C=C\CCCCCCCC(=O)O [oleic acid, cis-9-octadecenoic acid]
32D-kit cells; [2]
  range of effectiveness (rescue from cell death): 1 to 100 µM
  rescue/protection from cell death induced by SLF and Ca^2+ influx blocker: rescued from cell death
MDA-MB-231 cells
  protection from death induced by the Ca^2+ influx blocker: can protect
